Values of other authors as cited in patent US11291673B2, “Topical doxycycline hydrogel with improved long-term stability” (Nanopharmaceutics, Inc., priority 2019, dated 2022).
Values belong to the compound of their own block, whether it stands above or below them.

Columns and labels:
[1] = tested on: mastitis; settings: homogeneous suspension applied to the udder of a cow
[2] = compared to aqueous suspensions containing amphoteric dioxytetracycline
[3] = tested on: experimental dry eye (EDE) model

Compound: C[C@H]1c2cccc(O)c2C(=O)C2=C(O)[C@]3(O)C(=O)C(C(N)=O)=C(O)[C@@H](N(C)C)[C@@H]3[C@@H](O)[C@@H]21 [Doxycycline monohydrate]
aqueous solubility (pHs above 6): < 800 µg/mL

Compound: C[C@H]1c2cccc(O)c2C(O)=C2C(=O)[C@]3(O)C(O)=C(C(N)=O)C(=O)[C@H](N(C)C)[C@@H]3[C@@H](O)[C@@H]21 [4-epidoxycycline]
anti-inflammatory and anti-proteolytic effects [3]: lack of anti-inflammatory and anti-proteolytic effects

Compound: C[C@@H]1c2cccc(O)c2C(O)=C2C(=O)[C@]3(O)C(O)=C(C(N)=O)C(=O)[C@@H](N(C)C)[C@@H]3[C@@H](O)[C@@H]21 [6-epidoxycycline]
anti-inflammatory and anti-proteolytic effects [3]: lack of anti-inflammatory and anti-proteolytic effects

Further lines, with some results ahead:

solubility (neutral pH): less than 10 mg/ml
Compound: C[C@H]1c2cccc(O)c2C(=O)C2=C(O)[C@]3(O)C(=O)C(C(N)=O)=C(O)[C@@H](N(C)C)[C@@H]3[C@@H](O)[C@@H]21 [Doxycycline]

stability of suspension [2]: superior stability
Compound: calcium dioxytetracycline
alleviation of mastitis [1]: rapid and complete alleviation of mastitis
